Measured values from patent US9149038B2, “4-amino-6-(heterocyclic)picolinates and 6-amino-2-(heterocyclic)pyrimidine-4-carboxylates and their use as herbicides” (Dow AgroSciences LLC, priority 2013, dated 2015).
Like-named read-outs stand apart in the source and are kept apart here.

Experiments:
[1] = tested on: Key Broadleaf Weed and Crop Species; assay: Post-Emergent Test II: postemergent herbicidal activity, visual rating after 14 d (Table 7); assay type: in vivo; conditions: post-emergence, 336 h; for pest or weed control at 35 g/ha: 35 g ai/ha; for pest or weed control at 70 g/ha: 70 g ai/ha; for pest or weed control at 140 g/ha: 140 g ai/ha
Procedure, shortened: (§1)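 Track-sprayed young seedlings (first/second true leaf) at 187 L/ha across a 2-fold rate series from the high rate down to 1/16×. Kept in greenhouse at 23-29° C day, subirrigated. Injury rated by eye after 14 d, 0 = no injury, 100 = complete kill.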

[2] = tested on: Key Grass and Sedge Weeds as well as Grass Crops; assay: Post-Emergent Test II: postemergent herbicidal activity, visual rating after 14 d (Table 8); assay type: in vivo; conditions: post-emergence, 336 h; for pest or weed control at 35 g/ha: 35 g ai/ha; for pest or weed control at 70 g/ha: 70 g ai/ha; for pest or weed control at 140 g/ha: 140 g ai/ha
Procedure, shortened: as §1

[3] = ABUTH: velvetleaf (Abutilon theophrasti), read-out: Visual Growth Reduction (%) 14 Days After Application ABUTH
[4] = AMARE: redroot pigweed (Amaranthus retroflexus), read-out: Visual Growth Reduction (%) 14 Days After Application AMARE
[5] = BRSNN: oilseed rape, canola (Brassica napus), read-out: Visual Growth Reduction (%) 14 Days After Application BRSNN
[6] = CHEAL: lambsquarters (Chenopodium album), read-out: Visual Growth Reduction (%) 14 Days After Application CHEAL
[7] = EPHHL: wild poinsettia (Euphorbia heterophylla), read-out: Visual Growth Reduction (%) 14 Days After Application EPHHL
[8] = HELAN: sunflower (Helianthus annuus), read-out: Visual Growth Reduction (%) 14 Days After Application HELAN
[9] = barnyardgrass (Echinochloa crus-galli), read-out: Visual Growth Reduction (%) 14 Days After Application, ECHCG
[10] = giant foxtail (Setaria faberi), read-out: Visual Growth Reduction (%) 14 Days After Application, SETFA
[11] = maize, corn (Zea mays), read-out: Visual Growth Reduction (%) 14 Days After Application, ZEAMX
[12] = rice (Oryza sativa), read-out: Visual Growth Reduction (%) 14 Days After Application, ORYSA
[13] = wheat, spring (Triticum aestivum), read-out: Visual Growth Reduction (%) 14 Days After Application, TRZAS
[14] = yellow nutsedge (Cyperus esculentus), read-out: Visual Growth Reduction (%) 14 Days After Application, CYPES

COC(=O)c1nc(-c2ccc(F)c3c2OCO3)c(F)c(N)c1Cl [Compound 83]
pest or weed control at 35 g/ha [1, 3]: 85 to 94% | pest or weed control at 70 g/ha [1, 3]: 85 to 94% | pest or weed control at 140 g/ha [1, 3]: 95 to 100% | pest or weed control at 35 g/ha [1, 4]: 95 to 100% | pest or weed control at 70 g/ha [1, 4]: 95 to 100% | pest or weed control at 140 g/ha [1, 4]: 95 to 100% | pest or weed control at 35 g/ha [1, 5]: 30 to 44% | pest or weed control at 70 g/ha [1, 5]: 95 to 100% | pest or weed control at 140 g/ha [1, 5]: 95 to 100% | pest or weed control at 35 g/ha [1, 6]: 95 to 100% | pest or weed control at 70 g/ha [1, 6]: 95 to 100% | pest or weed control at 140 g/ha [1, 6]: 95 to 100% | pest or weed control at 35 g/ha [1, 7]: 0 to 29% | pest or weed control at 70 g/ha [1, 7]: 0 to 29% | pest or weed control at 140 g/ha [1, 7]: 0 to 29% | pest or weed control at 35 g/ha [1, 8]: 85 to 94% | pest or weed control at 70 g/ha [1, 8]: 95 to 100% | pest or weed control at 140 g/ha [1, 8]: 95 to 100% | pest or weed control at 35 g/ha [2, 9]: 0 to 29% | pest or weed control at 70 g/ha [2, 9]: 0 to 29% | pest or weed control at 140 g/ha [2, 9]: 0 to 29% | pest or weed control at 35 g/ha [2, 10]: 0 to 29% | pest or weed control at 70 g/ha [2, 10]: 0 to 29% | pest or weed control at 140 g/ha [2, 10]: 0 to 29% | pest or weed control at 35 g/ha [2, 11]: 0 to 29% | pest or weed control at 70 g/ha [2, 11]: 0 to 29% | pest or weed control at 140 g/ha [2, 11]: 0 to 29% | pest or weed control at 35 g/ha [2, 12]: 0 to 29% | pest or weed control at 70 g/ha [2, 12]: 0 to 29% | pest or weed control at 140 g/ha [2, 12]: 0 to 29% | pest or weed control at 35 g/ha [2, 13]: 0 to 29% | pest or weed control at 70 g/ha [2, 13]: 0 to 29% | pest or weed control at 140 g/ha [2, 13]: 0 to 29% | pest or weed control at 35 g/ha [2, 14]: 0 to 29% | pest or weed control at 70 g/ha [2, 14]: 0 to 29% | pest or weed control at 140 g/ha [2, 14]: 0 to 29%

COC(=O)c1nc(-c2cccc3c2OCO3)nc(N)c1OC [Compound 98]
pest or weed control at 35 g/ha [1, 3]: 0 to 29% | pest or weed control at 70 g/ha [1, 3]: 0 to 29% | pest or weed control at 140 g/ha [1, 3]: 0 to 29% | pest or weed control at 35 g/ha [1, 4]: 0 to 29% | pest or weed control at 70 g/ha [1, 4]: 0 to 29% | pest or weed control at 140 g/ha [1, 4]: 30 to 44% | pest or weed control at 35 g/ha [1, 5]: 0 to 29% | pest or weed control at 70 g/ha [1, 5]: 0 to 29% | pest or weed control at 140 g/ha [1, 5]: 0 to 29% | pest or weed control at 35 g/ha [1, 6]: 45 to 59% | pest or weed control at 70 g/ha [1, 6]: 60 to 74% | pest or weed control at 140 g/ha [1, 6]: 60 to 74% | pest or weed control at 35 g/ha [1, 7]: 0 to 29% | pest or weed control at 70 g/ha [1, 7]: 0 to 29% | pest or weed control at 140 g/ha [1, 7]: 0 to 29% | pest or weed control at 35 g/ha [1, 8]: 0 to 29% | pest or weed control at 70 g/ha [1, 8]: 30 to 44% | pest or weed control at 140 g/ha [1, 8]: 60 to 74% | pest or weed control at 35 g/ha [2, 9]: 0 to 29% | pest or weed control at 70 g/ha [2, 9]: 0 to 29% | pest or weed control at 140 g/ha [2, 9]: 0 to 29% | pest or weed control at 35 g/ha [2, 10]: 0 to 29% | pest or weed control at 70 g/ha [2, 10]: 0 to 29% | pest or weed control at 140 g/ha [2, 10]: 0 to 29% | pest or weed control at 35 g/ha [2, 11]: 0 to 29% | pest or weed control at 70 g/ha [2, 11]: 0 to 29% | pest or weed control at 140 g/ha [2, 11]: 0 to 29% | pest or weed control at 35 g/ha [2, 12]: 0 to 29% | pest or weed control at 70 g/ha [2, 12]: 0 to 29% | pest or weed control at 140 g/ha [2, 12]: 0 to 29% | pest or weed control at 35 g/ha [2, 13]: 0 to 29% | pest or weed control at 70 g/ha [2, 13]: 0 to 29% | pest or weed control at 140 g/ha [2, 13]: 0 to 29% | pest or weed control at 35 g/ha [2, 14]: 0 to 29% | pest or weed control at 70 g/ha [2, 14]: 0 to 29% | pest or weed control at 140 g/ha [2, 14]: 0 to 29%
